US20050054637A1, “Substituted piperazine cyclohexane carboxilic acid amides and the use thereof” (priority 2001, published 2005)

What was measured:
mongrel dogs = assay: In vivo test model for adenosine-uptake inhibitors: reactive hyperaemia after coronary occlusion in anaesthetized dogs; design: species or system dog; conditions: 10 μg/kg i.v., reactive hyperaemia after four-minute occlusion
Experimental: 2. In vivo Test Model for Testing Adenosine-Uptake Inhibitors
Adult mongrel dogs (body weight 20-30 kg) are initially anaesthetized using a combination of trapanal 500 mg and alloferin 55 mg. Anaesthesia is maintained by infusion of a mixture of fentanyl 0.072 mg/kg, alloferin 0.02 mg/kg and dihydrobenzpyridyl 0.25 mg/kg×min. The animals are intubated and ventilated with a mixture of O2/N2O (ratio 1:5) using a Dräger ventilation pump at 16 breaths per min and a volume of 18-24 ml/kg. The body temperature is maintained at 38° C.±0.1° C. Arterial blood pressure is measured via a catheter in the femoral artery. A thoractomy is carried out on the left side at the fifth intercostal space. The lung is pushed back and fixed and a cut is made in the pericardium. A proximal section of the LAD distally to the first diagonal branch is exposed and a calibrated electromagnetic flow sensor (from Scalar) is placed around the vessel and attached to a flow meter (from Scalar, model MDL 1401). Distally to the flow sensor, a mechanical occluder is attached such that there are no branches in between flow sensor and occluder.
Using a catheter in the femoral vein, blood samples are taken and substances (10 μg/kg i.v.) are administered. A peripheral ECG is recorded using needles which are fixed subcutaneously. A microtip pressure manometer (from Millar, model PC-350) is pushed through the left atrium to measure the pressure in the left ventricle. Measurement of the heart frequency is triggered by the R wave of the ECG. During the entire experiment, the haemodynamic parameters and the coronary flow are recorded using a multi-event recorder.
A four-minute occlusion causes reactive hyperaemia. The difference between the coronary flow under control conditions and the maximum flow during the reactive hyperaemia is measured. The time which is required to achieve half of this maximum flow in the drop is a suitable parameter to assess the reaction hyperaemia.
After a stabilization period of one hour, the experiment is started with a four-minute occlusion. Thirty minutes later, the substance is administered (i.v.) which is, after two minutes, followed by re-occlusion. The reactive hyperaemia after verum and placebo is compared.

[1] = system: adenosine uptake in rabbit erythrocytes; assay: Inhibition of the adenosine uptake in rabbit erythrocytes (functional adenosine-uptake test); type: cell-based; conditions: Oryctolagus cuniculus, 0.25 h; rabbit erythrocyte preparation, 30° C., adenosine remaining 15 min after addition of adenosine
Experimental: 1. Inhibition of the Adenosine Uptake in Rabbit Erythrocytes by the Compounds According to the Invention
The capability of substnaces to influence the adenosine-uptake system is investigated by determining the inhibitory effect of the substances on functional adenosine uptake.
For the functional adenosine-uptake test, an erythrocyte preparation from rabbit blood is used. The blood is drawn intravenously using citrate (3 ml Monovette 9NC from Sarstedt) as anticoagulant. The blood is centrifuged at 3000 g for 5 min and the erythrocytes are suspended in 10 mM 3-(N-morpholino)propanesulphonic acid buffer (MOPS)/0.9% aqueous sodium chloride solution pH 7.4. The suspension is diluted to one hundredth of the original blood volume. In each case, 990 μl of the suspension are admixed with 10 μl of a suitable concentration of the substance to be examined, and the mixture is incubated at 30° C. for 5 min. 5 μl of a 4 mM adenosine solution are then added, and the mixture is incubated at 30° C. for another 15 min. The samples are then centrifuged at 3000 g for 5 min and in each case 700 μl of the supernatant are mixed with 28 μl of 70% strength HClO4, allowed to stand in an ice bath for 30 min and centrifuged at 16 000 g for 3 min, and 350 μl of the sample are neutralized using 30 μl of 5 N NaOH. 50 μl of the sample are applied to a column (Waters Symmetry C18 5 μm, 3.9×150 mm). A Spherisorb ODS II 5 μm, 4.6×10 mm column is used as precolumn The mobile phase used is a gradient of 50 mM KH2PO4/5 mM tributylamine pH 7 (mobile phase A) and a mixture of mobile phase A/methanol 1:1 (mobile phase B). The gradient is from 10% to 40% B, at a flow rate of 0.5 ml/min. The adenosine which is present is quantified by its absorption at 260 nm, as are the hypoxanthine and inosine formed.
Table 1 below lists the IC50 values obtained using this test: […]

Structure (SMILES) | Increase of coronary blood flow in % (mongrel dogs) | IC50 [1]
NC(=O)[C@@H](NC(=O)[C@@H]1CCCC[C@H]1N1CCN(C(=O)c2ccccc2)CC1)c1ccccc1 [Example 1, (1R,2R)-N-[(1S)-2-Amino-2-oxo-1-phenylethyl]-2-(4-benzoyl-1-piperazinyl)cyclo-hexanecarboxamide] | 258% | 0.03 µM
NC(=O)[C@@H](NC(=O)[C@@H]1CCCC[C@H]1N1CCN(C(=O)OC2CCCC2)CC1)c1ccccc1 [Example 21] | – | 0.015 µM
NC(=O)[C@@H](NC(=O)[C@@H]1CCCC[C@H]1N1CCN(Cc2ccccc2)CC1)c1ccc(F)cc1 [Example 8, (1R,2R)-N-[(1S)-2-Amino-1-(4-fluorophenyl)-2-oxoethyl]-2-(4-benzyl-1-piperazinyl)cyclohexanecarboxamide] | – | 0.08 µM
NC(=O)[C@@H](NC(=O)[C@@H]1CCCC[C@H]1N1CCN(C(=O)c2n[nH]c3ccccc23)CC1)c1ccccc1 [Example 3, (1R,2R)-N-[(1S)-2-Amino-2-oxo-1-phenylethyl]-2-[4-(1H-indazol-3-ylcarbonyl)-1-piperazinyl]cyclohexanecarboxamide] | – | 0.03 µM
Cc1ccc(C(=O)N2CCN([C@@H]3CCCC[C@H]3C(=O)N[C@H](C(N)=O)c3ccccc3)CC2)s1 [Example 17, (1R,2R)-N-[(1S)-2-Amino-2-oxo-1-phenylethyl]-2-{4-[(5-methyl-2-thienyl)-carbonyl]-1-piperazinyl}cyclohexanecaiboxamide] | 250% | 0.02 µM
NC(=O)[C@@H](NC(=O)[C@@H]1CCCC[C@H]1N1CCN(C(=O)c2ccc[nH]2)CC1)c1ccccc1 [Example 18, (1R,2R)-N-[(1S)-2-Amino-2-oxo-1-phenylethyl]-2-{4-[(2-pyrrolyl)carbonyl]-1-piperazinyl}cyclohexanecarboxamide] | 347% | 0.03 µM
NC(=O)[C@@H](NC(=O)[C@@H]1CCCC[C@H]1N1CCN(C(=O)c2ccc(F)cc2F)CC1)c1ccccc1 [Example 16, (1R,2R)-N-[(1S)-2-Amino-2-oxo-1-phenylethyl]-2-[4-(2,4-difluorobenzoyl)-1-piperazinyl)cyclohexanecarboxamide] | 326% | 0.03 µM
NC(=O)[C@@H](NC(=O)[C@@H]1CCCC[C@H]1N1CCN(C(=O)c2ccccc2F)CC1)c1ccccc1 [Example 27] | – | 0.02 µM
NC(=O)[C@@H](NC(=O)[C@@H]1CCCC[C@H]1N1CCN(C(=O)c2ccccc2)CC1)c1ccc(F)cc1 [Example 2, (1R,2R)-N-[(1S)-2-Amino-2-oxo-1-(4-fluorophenyl)ethyl]-2-(4-benzoyl-1-piperazin-yl)cyclohexanecarboxamide] | – | 0.03 µM
NC(=O)[C@@H](NC(=O)[C@@H]1CCCC[C@H]1N1CCN(C(=O)c2ccc3c(c2)OCO3)CC1)c1ccccc1 [Example 66] | – | 0.02 µM
